Test results reported in patent publication EP4722228A1, “NEW COMPOUND TARGETING MUSK AND USE THEREOF” (The University of Tokyo, priority 2023, dated 2024).
Bridge positions count the residues as written; N and C are the ends. Square brackets hold non-standard residues; d marks the D form. Peptide text beside a SMILES is read from it. I, II: the chains in the order shown. * marks the point of attachment. Palmitoyl = CCCCCCCCCCCCCCCC(=O)*; PEG3 = NCCOCCOCCOCCC(=O)O; Dap = NC[C@H](N)C(=O)O

Key:
Assay type in all cases: in vivo
[1] = system: rat PTMG model using anti-acetylcholine receptor monoclonal antibody (mAb35); test: Grip Strength Test in rat PTMG model; settings: approx. 30 hours after antibody
Description: (§1) 5-week-old female rats (n=20, LEW/CrlCrlj, 4 weeks old when carried in, Jackson Laboratory Japan) were divided into four groups (Group A, Group B, Group C, and Group D) using body weight measurement results as indexes. Vehicle was administered to Group A, and the test compound MuSK7-pal dissolved in vehicle was administered intravenously to each of Group B (3 mg/kg), Group C (2 mg/kg), and Group D (1 mg/kg) (Day 0). Two hours after intravenous administration, an anti-nicotinic acetylcholine receptor monoclonal antibody (mAb35, National Hospital Organization Nagasaki Kawatana Medical Center) dissolved in PBS (pH 7.4) as a drug for inducing the pathology of myasthenia gravis was administered intraperitoneally to all animals at 200 µg/rat (Day 0). The vehicle, which was a solvent of the compound, was phosphate-buffered saline (PBS) at pH 7.4 containing 20% hydroxypropyl-β-cyclodextrin and 0.02% polysorbate 80 (the same applies to Example 3(2)).
Approximately 30 hours after antibody administration, the muscle strength of the rats was measured using a mouse grip strength meter (GRIP STRENGTH METER FOR MICE, MODEL MK-380M, Muromachi Kikai Co., Ltd.). Specifically, the rats were left for 15 minutes or longer, and after confirming that they were in a resting state, the forelimbs of the rats were made to grasp the mouse grip strength meter. Next, the bodies of the rats were pulled, and the scale of the grip strength meter at the point when the rats released the wire mesh was read (first measurement). The above procedure was repeated once more (second measurement). When the difference between the first and second measurement values was 20% or less, the average value thereof was used as the measurement value. When the difference was 20% or more, the above procedure was further performed once more (third measurement), and the average value of two measurements with close values among the three measurements was used as the measurement value.
as §1, with “(n=24,” for “(n=20,”, “(0.5” for “(3”, “(0.25” for “(2”, “(0.1” for “(1”, “0).” for “0). The vehicle, which was a solvent of the compound, was phosphate-buffered saline (PBS) at pH 7.4 containing 20% hydroxypropyl-β-cyclodextrin and 0.02% polysorbate 80 (the same applies to Example 3(2)).”
The Grip Strength Test was performed approximately 30 hours after antibody administration. The implementation procedure was the same as that in (1) B above.
(§2) 5-week-old female rats (LEW/CrlCrlj, 4 weeks old when carried in, Jackson Laboratory Japan) were divided into three groups (Group A, Group B, and Group C) using body weight measurement results as indexes. The test compound (tetramer of Ub012 (EAAAK)3) dissolved in vehicle was administered intravenously to Group A (5 mg/kg) (n=5), the test compound (tetramer of Ub012(ΔGG) (EAAAK)3) dissolved in vehicle was administered intravenously to Group B (5 mg/kg) (n=5), and vehicle was administered intravenously to Group C (n=5), respectively (Day 0). Two hours after intravenous administration, an anti-nicotinic acetylcholine receptor monoclonal antibody (mAb35, National Hospital Organization Nagasaki Kawatana Medical Center) dissolved in PBS (pH 7.4) as a drug for inducing the pathology of myasthenia gravis was administered intraperitoneally to all animals at 200 µg/rat (Day 0).
The Grip Strength Test was performed approximately 30 hours after antibody administration. The implementation procedure was the same as that in Example 3(1) B.

[2] = system: rat PTMG model using anti-acetylcholine receptor monoclonal antibody (mAb35); test: Wire-hang Test (Hanging Wire Test) in rat PTMG model; settings: approx. 30 hours after antibody
Description: as §1
Approximately 30 hours after antibody administration, the muscle strength of the rats was measured using a lid (made of wire mesh) of a lidded plastic cage (Clean 200-TPX cage; CL-0108-2, CLEA Japan, Inc.). Specifically, the rats were left for 15 minutes or longer, and after confirming that they were in a resting state, they were placed on the cage lid. Next, the cage lid was lightly shaken about three times so that the rats would grasp the cage lid, and the cage lid was turned upside down. The inverted lid was held at a height (about 60 cm from the floor), which was high enough to prevent the rats from getting down easily but low enough not to injure them if they fell. The latency until the rats fell from the cage lid was measured for up to 120 seconds.
(§3) 5-week-old female rats (n=24, LEW/CrlCrlj, 4 weeks old when carried in, Jackson Laboratory Japan) were divided into four groups (Group A, Group B, Group C, and Group D) using body weight measurement results as indexes. Vehicle was administered to Group A, and the test compound MuSK7-pal dissolved in vehicle was administered intravenously to each of Group B (0.5 mg/kg), Group C (0.25 mg/kg), and Group D (0.1 mg/kg) (Day 0). Two hours after intravenous administration, an anti-nicotinic acetylcholine receptor monoclonal antibody (mAb35, National Hospital Organization Nagasaki Kawatana Medical Center) dissolved in PBS (pH 7.4) as a drug for inducing the pathology of myasthenia gravis was administered intraperitoneally to all animals at 200 µg/rat (Day 0).
The Wire-hang Test was performed approximately 30 hours after antibody administration. The implementation procedure was the same as that in (1) B above.
as §2
The Wire-hang Test was performed approximately 30 hours after antibody administration. The implementation procedure was the same as that in Example 3(1) B.

[3] = system: rat PTMG model using anti-acetylcholine receptor monoclonal antibody (mAb35); test: Movement score in rat PTMG model
Description: as §1
The movement of the animals was evaluated at each time point of 9, 24, 33, 48, 57, and 72 hours (hr) after antibody administration according to six-level evaluation criteria (Score). The evaluation criteria were as follows. • 0: Normal • 1: Reduced grip strength in forelimbs and hindlimbs • 2: Incomplete paralysis of hindlimbs • 3: Complete paralysis of hindlimbs and inability to stand • 4: Moribund • 5: Death
The average score of the rats in each group was calculated. In addition, in a cage in which a rat determined to have a score of 2 or higher was present, crushed transport agar (manufactured by Oriental Yeast Co., Ltd.) and pellet feed were provided.
as §3
The movement of the animals was evaluated at each time point of 9, 24, 33, 48, 57, and 72 hours (hr) after antibody administration according to six-level evaluation criteria (Score). The evaluation criteria were the same as those in (1) B above.
as §2
The movement of the animals was evaluated at each time point of 9, 24, 33, 48, 57, and 72 hours (hr) after antibody administration according to six-level evaluation criteria (Score). The evaluation criteria were the same as those in Example 3(1) B.

[4] = 0.1 mg/kg intravenously (Group D, Example 3(2))
[5] = 0.25 mg/kg intravenously (Group C, Example 3(2))
[6] = 0.5 mg/kg intravenously (Group B, Example 3(2))

Work on `CCCCCCCCCCCCCCCC(=O)NCCCC[C@H](NC(=O)[C@H](CNC(=O)CCOCCOCCOCCNC(=O)CNC(=O)[C@@H]1CSCC(=O)N[C@H](Cc2ccc(O)cc2)C(=O)N2CCC[C@H]2C(=O)N[C@@H](CO)C(=O)N[C@@H](Cc2ccc(O)cc2)C(=O)N[C@@H](Cc2c[nH]cn2)C(=O)N[C@@H]([C@@H](C)O)C(=O)N[C@@H](CC(N)=O)C(=O)N[C@@H](C(C)C)C(=O)N[C@@H](C(C)C)C(=O)N[C@@H](C)C(=O)N[C@@H](CO)C(=O)N[C@@H](CC(C)C)C(=O)N[C@@H](CCCCN)C(=O)N[C@@H](CCCNC(=N)N)C(=O)N1)NC(=O)CCOCCOCCOCCNC(=O)CNC(=O)[C@@H]1CSCC(=O)N[C@H](Cc2ccc(O)cc2)C(=O)N2CCC[C@H]2C(=O)N[C@@H](CO)C(=O)N[C@@H](Cc2ccc(O)cc2)C(=O)N[C@@H](Cc2c[nH]cn2)C(=O)N[C@@H]([C@@H](C)O)C(=O)N[C@@H](CC(N)=O)C(=O)N[C@@H](C(C)C)C(=O)N[C@@H](C(C)C)C(=O)N[C@@H](C)C(=O)N[C@@H](CO)C(=O)N[C@@H](CC(C)C)C(=O)N[C@@H](CCCCN)C(=O)N[C@@H](CCCNC(=N)N)C(=O)N1)C(N)=O` [MuSK7-pal] (I: {CH2CO}-[dY]PSYHTNVVASLKRCG[PEG3][Dap]K(Palmitoyl)-NH2 / II: {CH2CO}-[dY]PSYHTNVVASLKRCG[PEG3]; amide I:18-II:C; thioether I:N-I:15, II:N-II:15) yielded a grip strength [1, 4] of 452 g, a grip strength [1, 5] of 476 g and a grip strength [1, 6] of 461 g. It also gave a grip strength ([1]; 1 mg/kg intravenously (Group D, Example 3(1))) of 577 g, a grip strength ([1]; 2 mg/kg intravenously (Group C, Example 3(1))) of 474 g and a grip strength ([1]; 3 mg/kg intravenously (Group B, Example 3(1))) of 467 g. The “mean latency to fall” value [2, 4] was 25.3 s, the “mean latency to fall” value [2, 5] was 32.3 s and the “mean latency to fall” value [2, 6] was 11.3 s. For the same compound, the “mean latency to fall” value ([2]; 1 mg/kg intravenously (Group D, Example 3(1)), max 120 seconds) was 69.6 s, the “mean latency to fall” value ([2]; 2 mg/kg intravenously (Group C, Example 3(1)), max 120 seconds) was 29.2 s and the “mean latency to fall” value ([2]; 3 mg/kg intravenously (Group B, Example 3(1)), max 120 seconds) was 17.6 s. For the same compound, the movement score ([3]; 0.1 mg/kg intravenously (Group D, Example 3(2)), not significant vs Group A) was “the scores remained low compared to the control group”, the movement score ([3]; 0.25 mg/kg intravenously (Group C, Example 3(2)), Dunn's test) was “significantly lower than those in Group A at all measurement points except at 9 hr and at 57 hr” and the movement score ([3]; 0.5 mg/kg intravenously (Group B, Example 3(2)), Dunn's test) was “significantly lower than those in Group A at all measurement points after 24 hr”. For the same compound, the movement score ([3]; 1 mg/kg intravenously (Group D, Example 3(1)), all individuals, all measurement points, score 0-5) was 0, the movement score ([3]; 2 mg/kg intravenously (Group C, Example 3(1)), 9 to 72 hr, score 0-5) was “the scores remained low at all measurement points” and the movement score ([3]; 3 mg/kg intravenously (Group B, Example 3(1)), 9 to 72 hr, score 0-5) was “the scores remained low at all measurement points”.
